{"source": "patent US20020137023A1", "about": "“Methods and compositions for targeting compounds to muscle” (Auburn University, priority 1997, published 2002)", "assay_in_all_cases": "in vivo phage display selection, frequency of selected clone", "key": {"cardiac muscle [1]": {"system": "cardiac muscle", "set-up": "species or system dog", "settings": "for FREQUENCY (of selected phage clone among clones sequenced): 3 in vivo rounds in cardiac muscle, dog", "experimental": "(§1) In round one of selection, the phage library is injected intravenously and multiple tissues may be recovered. In subsequent rounds, the phage purified from specific tissues recovered in round one is injected intravenously, and thus, only that tissue is recovered. In rounds 2-4, separate animals are needed for each tissue being examined. After the last round, the phages are plated on a lawn of bacteria and a number of phage plaques are isolated and the DNA sequenced. Of these a certain percentage will represent the dominant selected clone. FIG. 2 provides a scheme for selection of tissue specific phage.\n(§2) In the Table, “Four rounds of selection . . . ,” means that in round 1, the phage library was injected intravenously, and a specific tissue was recovered. In round 1, multiple tissues are recovered from one animal (skeletal muscle, cardiac muscle, etc.). In any subsequent round, the phage purified from a specific tissue is injected intravenously, and only that tissue is recovered. Thus, in rounds 2-4, separate animals are needed for each tissue being examined. After the last round, the phage are plated on a lawn of bacteria and a number of phage plaques are isolated and the DNA sequenced. This is represented in the Table by “number of phage clones sequenced.” Of these, a certain percentage will represent the dominant selected clone.\n(§3) The experiments disclosed herein, represent the first in vivo selection in any species other than mouse. Generally, phage was left to circulate for one hour."}, "skeletal muscle": {"system": "skeletal muscle", "experimental": "as §1, §2, §3"}, "neuro muscular tissue": {"system": "neuro muscular tissue", "settings": "4 in vivo rounds in neural muscular tissue; mouse", "experimental": "as §1, §2, §3"}, "murine muscle": {"system": "murine muscle", "set-up": "species or system mouse", "settings": "four rounds in vivo", "experimental": "as §1\nIn the Table, “Four rounds of selection . . . ,” means that in round 1, the phage library was injected intravenously, and a specific tissue was recovered. In round 1, multiple tissues are recovered from one animal (skeletal muscle, cardiac muscle, etc.). In any subsequent round, the phage purified from a specific tissue is injected intravenously, and only that tissue is recovered. Thus, in rounds 2-4, separate animals are needed for each tissue being examined. After the last round, the phage are plated on a lawn of bacteria and a number of phage plaques are isolated and the DNA sequenced. This is represented in the Table by “number of phage clones sequenced.” Of these, a certain percentage will represent the dominant selected clone. […]"}, "cardiac muscle [2]": {"system": "cardiac muscle", "settings": "mouse", "experimental": "as §1, §2, §3"}, "[3]": {"settings": "4 in vivo rounds in skeletal muscle, mouse"}, "[4]": {"settings": "4 in vivo rounds in cardiac muscle"}}}
{"substance": "APVHRPL (Phage display library peptides) [peptide selected via two rounds in vivo, in canine cardiac muscle]", "values": [{"measurement": "fraction in which the selected clone was found", "setting": "cardiac muscle [1]; two rounds in vivo, in canine cardiac muscle", "result": "found in the washed tissue fraction"}]}
{"substance": "ASSLNIA (Phage display library peptides) [Ala-Ser-Ser-Leu-Asn-Ile-Ala]", "values": [{"measurement": "FREQUENCY (of selected phage clone among clones sequenced)", "setting": "skeletal muscle; 3 in vitro rounds on C2C12 myotubes followed by 2 in vivo rounds on skeletal muscle, mouse", "result": 40, "unit": "%"}]}
{"substance": "CGHHPVYAC (Phage display library peptides) [Cys-Gly-His-His-Pro-Val-Tyr-Ala-Cys]", "values": [{"measurement": "FREQUENCY (of selected phage clone among clones sequenced)", "setting": "cardiac muscle [1]", "result": 20, "unit": "%"}, {"measurement": "FREQUENCY (of selected phage clone among clones sequenced)", "setting": "skeletal muscle; tissue skeletal muscle, dog", "result": 100, "unit": "%"}]}
{"substance": "GETRAPL (Phage display library peptides) [Gly-Glu-Thr-Arg-Ala-Pro-Leu]", "values": [{"measurement": "FREQUENCY (of selected phage clone among clones sequenced)", "setting": "neuro muscular tissue", "result": 12, "unit": "%"}, {"measurement": "FREQUENCY (of selected phage clone among clones sequenced)", "setting": "skeletal muscle; [3]", "result": 37, "unit": "%"}]}
{"substance": "HAIYPRH (Phage display library peptides) [peptide selected via four rounds in vivo, in murine muscle]", "values": [{"measurement": "frequency of selected clone", "setting": "murine muscle", "result": 4, "unit": "%"}]}
{"substance": "HVHTLPT (Phage display library peptides) [His-Val-His-Thr-Leu-Pro-Thr]", "values": [{"measurement": "FREQUENCY (of selected phage clone among clones sequenced)", "setting": "cardiac muscle [2]; [4]", "result": 11, "unit": "%"}]}
{"substance": "KAPLTPV (Phage display library peptides) [peptide selected by 3 in vivo phage rounds in dog cardiac muscle]", "values": [{"measurement": "FREQUENCY (of selected phage clone among clones sequenced)", "setting": "cardiac muscle [1]", "result": 8, "unit": "%"}]}
{"substance": "MHHTRFY (Phage display library peptides) [Met-His-His-Thr-Arg-Phe-Tyr]", "values": [{"measurement": "FREQUENCY (of selected phage clone among clones sequenced)", "setting": "cardiac muscle [2]; [4]", "result": 8, "unit": "%"}]}
{"substance": "QWHGPLH (Phage display library peptides) [Gln-Trp-His-Gly-Pro-Leu-His]", "values": [{"measurement": "FREQUENCY (of selected phage clone among clones sequenced)", "setting": "cardiac muscle [2]; 3 in vivo rounds in cardiac muscle", "result": 20, "unit": "%"}]}
{"substance": "SGTLFAN (Phage display library peptides) [peptide selected by 3 in vivo phage rounds in dog cardiac muscle]", "values": [{"measurement": "FREQUENCY (of selected phage clone among clones sequenced)", "setting": "cardiac muscle [1]", "result": 28, "unit": "%"}]}
{"substance": "WDANGKT (Phage display library peptides) [Trp-Asp-Ala-Asn-Gly-Lys-Thr]", "values": [{"measurement": "FREQUENCY (of selected phage clone among clones sequenced)", "setting": "skeletal muscle; 2 in vitro on C2C12 myotubes followed by 2 in vivo rounds on skeletal muscle, mouse + dog", "result": 10, "unit": "%"}, {"measurement": "FREQUENCY (of selected phage clone among clones sequenced)", "setting": "skeletal muscle; [3]", "result": 19, "unit": "%"}]}
